Data published in paper PMC10797590, “Exploring Rigid and Flexible Scaffolds to Develop Potent Glucuronic Acid Glycodendrimers for Dengue Virus Inhibition” (Bioconjugate Chemistry, 2023).
pKd: −log10 of the molar value.

What was measured:
[1] = target: T1, dengue virus envelope protein 2 (DENV2) (Dengue virus type 2, UniProt P29990); assay: SPR binding study of GlcA glycodendrimers on immobilized DENV2 (Biacore 3000, CM4 chip); parameters: species or system dengue virus serotype 2; conditions: for SPR binding response: GD flowed at 100 μM over immobilized DENV2; for pKd: read-out: dissociation constant KD, steady-state analysis of SPR, 1:1 Langmuir model, immobilized DENV2, 25 °C
T1 construct: Dengue virus envelope protein 2 (DENV2) was purchased from the Native Antigen Company; purchased Native Antigen Company
Procedure: In order to evaluate the ability of GDs 4a–f, 9a–c, and 12a–c to interact with dengue virus envelope protein 2 (DENV2), an SPR binding study was carried out.
Compounds 4a–f, 9a–c, and 12a–c were flowed on immobilized DENV2 at a concentration of 100 μM (Figure 1).
Dengue virus envelope protein 2 (DENV2) was purchased from the Native Antigen Company. SPR sensor chips CM4 (carboxymethylated dextran) and other reagents used in SPR experiments were purchased from GE Healthcare. SPR experiments were performed with a Biacore 3000.
SPR experiments were performed at 25 °C with a Biacore 3000 (GE Healthcare). PBST (10 mm phosphate, pH 7.40, 150 mm NaCl, and 0.005% v/v surfactant P20) was used as a running buffer. A solution with the dengue virus serotype 2 protein (DENV2) was adjusted to 20 μg/mL in 10 mM citrate pH 4.00 buffer, and the protein was immobilized in flow cell 1 of a CM4 sensor chip by following the amine coupling method according to the manufacturer’s instructions. Prior to injection over the sensor chip, DENV2 was mixed with a 4-fold molar excess of HS, for 30 min at 4 °C, to protect the GAG-binding domains of the envelope protein. The immobilization response was 2000 RU, and then, the sensor surface was washed with 1 M NaCl to remove the bound HS. Sensor chip flow cell 2 was activated, blocked, and used as a reference surface. Blank samples and concentration series were injected on a CM4 chip at a flow rate of 40 μL/min for 180 s, and dissociation was registered for 180 s.
Initially, compounds 4a–f, 9a–c, and 12a–c were flowed on the immobilized DENV2 at a 100 μM concentration. Then different concentration of GDs (5–125 μM) were flowed on the immobilized DENV2 (compound 12b: 5–125 μM; 12c: 5–150 μM; 9b: 25–250 μM; 4c: 25-250 μM).25–250 μM). Data processing and analysis were carried out with Biaevaluation v.4.1.1 (GE Healthcare).
All signals were blank-subtracted, reference-corrected, and globally adjusted to an adequate kinetic model to obtain binding parameters. […] Instead, a steady-state analysis kinetic analysis was carried out assuming the 1:1 Langmuir model. The value of KA is obtained by fitting a plot of RU in the plateau region against the GD concentration, which generates the following equations. [drawing 1] [drawing 2] [drawing 3] [drawing 4] KD is calculated as the inverse of KA (KD = 1/KA).

[2] = target: DENV2 envelope protein; conditions: SPR, same experimental conditions as current study; cited from earlier work

Compound | SPR binding response [1] [RU] | pKd [1] | pKd [2] | fold difference of KD of heparin versus GDs 12b and 12c ([1]; heparin KD 56 nM vs 12b and 12c KD)
O=C(O)[C@H]1O[C@@H](OCCCn2cc(COc3cc4c5cc(OCc6cn(CCCO[C@@H]7O[C@H](C(=O)O)[C@@H](O)[C@H](O)[C@H]7O)nn6)c(OCc6cn(CCCO[C@@H]7O[C@H](C(=O)O)[C@@H](O)[C@H](O)[C@H]7O)nn6)cc5c5cc(OCc6cn(CCCO[C@@H]7O[C@H](C(=O)O)[C@@H](O)[C@H](O)[C@H]7O)nn6)c(OCc6cn(CCCO[C@@H]7O[C@H](C(=O)O)[C@@H](O)[C@H](O)[C@H]7O)nn6)cc5c4cc3OCc3cn(CCCO[C@@H]4O[C@H](C(=O)O)[C@@H](O)[C@H](O)[C@H]4O)nn3)nn2)[C@H](O)[C@@H](O)[C@@H]1O [4e] | 0.0 | – | – | –
O=C(O)[C@H]1O[C@@H](OCCCn2cc(COc3cc(COCc4cc(OCc5cn(CCCO[C@@H]6O[C@H](C(=O)O)[C@@H](O)[C@H](O)[C@H]6O)nn5)cc(OCc5cn(CCCO[C@@H]6O[C@H](C(=O)O)[C@@H](O)[C@H](O)[C@H]6O)nn5)c4)cc(OCc4cn(CCCO[C@@H]5O[C@H](C(=O)O)[C@@H](O)[C@H](O)[C@H]5O)nn4)c3)nn2)[C@H](O)[C@@H](O)[C@@H]1O [9a] | 5.0 | – | – | –
O=C(O)[C@H]1O[C@@H](OCCCn2cc(COc3cc(COc4cc(OCc5cc(OCc6cn(CCCO[C@@H]7O[C@H](C(=O)O)[C@@H](O)[C@H](O)[C@H]7O)nn6)cc(OCc6cn(CCCO[C@@H]7O[C@H](C(=O)O)[C@@H](O)[C@H](O)[C@H]7O)nn6)c5)cc(OCc5cc(OCc6cn(CCCO[C@@H]7O[C@H](C(=O)O)[C@@H](O)[C@H](O)[C@H]7O)nn6)cc(OCc6cn(CCCO[C@@H]7O[C@H](C(=O)O)[C@@H](O)[C@H](O)[C@H]7O)nn6)c5)c4)cc(OCc4cn(CCCO[C@@H]5O[C@H](C(=O)O)[C@@H](O)[C@H](O)[C@H]5O)nn4)c3)nn2)[C@H](O)[C@@H](O)[C@@H]1O [4d] | 0.3 | – | – | –
O=C(O)[C@H]1O[C@@H](OCCCn2cc(COc3cc(COCCN(CCOCc4cc(OCc5cn(CCCO[C@@H]6O[C@H](C(=O)O)[C@@H](O)[C@H](O)[C@H]6O)nn5)cc(OCc5cn(CCCO[C@@H]6O[C@H](C(=O)O)[C@@H](O)[C@H](O)[C@H]6O)nn5)c4)CCOCc4cc(OCc5cn(CCCO[C@@H]6O[C@H](C(=O)O)[C@@H](O)[C@H](O)[C@H]6O)nn5)cc(OCc5cn(CCCO[C@@H]6O[C@H](C(=O)O)[C@@H](O)[C@H](O)[C@H]6O)nn5)c4)cc(OCc4cn(CCCO[C@@H]5O[C@H](C(=O)O)[C@@H](O)[C@H](O)[C@H]5O)nn4)c3)nn2)[C@H](O)[C@@H](O)[C@@H]1O [12b] | 203.4 | 6.31 | – | –
O=C(O)[C@H]1O[C@@H](OCCCn2cc(COc3cc(OCc4cn(CCCO[C@@H]5O[C@H](C(=O)O)[C@@H](O)[C@H](O)[C@H]5O)nn4)cc(OCc4cn(CCCO[C@@H]5O[C@H](C(=O)O)[C@@H](O)[C@H](O)[C@H]5O)nn4)c3)nn2)[C@H](O)[C@@H](O)[C@@H]1O [4c] | 60.8 | – | – | –
O=C(O)[C@H]1O[C@@H](OCCCn2cc(COc3cc(COc4cc(COCc5cc(OCc6cc(OCc7cn(CCCO[C@@H]8O[C@H](C(=O)O)[C@@H](O)[C@H](O)[C@H]8O)nn7)cc(OCc7cn(CCCO[C@@H]8O[C@H](C(=O)O)[C@@H](O)[C@H](O)[C@H]8O)nn7)c6)cc(OCc6cc(OCc7cn(CCCO[C@@H]8O[C@H](C(=O)O)[C@@H](O)[C@H](O)[C@H]8O)nn7)cc(OCc7cn(CCCO[C@@H]8O[C@H](C(=O)O)[C@@H](O)[C@H](O)[C@H]8O)nn7)c6)c5)cc(OCc5cc(OCc6cn(CCCO[C@@H]7O[C@H](C(=O)O)[C@@H](O)[C@H](O)[C@H]7O)nn6)cc(OCc6cn(CCCO[C@@H]7O[C@H](C(=O)O)[C@@H](O)[C@H](O)[C@H]7O)nn6)c5)c4)cc(OCc4cn(CCCO[C@@H]5O[C@H](C(=O)O)[C@@H](O)[C@H](O)[C@H]5O)nn4)c3)nn2)[C@H](O)[C@@H](O)[C@@H]1O [9c] | 0.0 | – | – | –
O=C(O)[C@H]1O[C@@H](OCCCn2cc(COc3cc(COCc4cc(OCc5cn(CCCO[C@@H]6O[C@H](C(=O)O)[C@@H](O)[C@H](O)[C@H]6O)nn5)c(OCc5cn(CCCO[C@@H]6O[C@H](C(=O)O)[C@@H](O)[C@H](O)[C@H]6O)nn5)c(OCc5cn(CCCO[C@@H]6O[C@H](C(=O)O)[C@@H](O)[C@H](O)[C@H]6O)nn5)c4)cc(OCc4cn(CCCO[C@@H]5O[C@H](C(=O)O)[C@@H](O)[C@H](O)[C@H]5O)nn4)c3OCc3cn(CCCO[C@@H]4O[C@H](C(=O)O)[C@@H](O)[C@H](O)[C@H]4O)nn3)nn2)[C@H](O)[C@@H](O)[C@@H]1O [9b] | 68.5 | 5.76 | – | –
O=C(O)[C@H]1O[C@@H](OCCCn2cc(CN(Cc3cn(CCCO[C@@H]4O[C@H](C(=O)O)[C@@H](O)[C@H](O)[C@H]4O)nn3)Cc3cn(CCCO[C@@H]4O[C@H](C(=O)O)[C@@H](O)[C@H](O)[C@H]4O)nn3)nn2)[C@H](O)[C@@H](O)[C@@H]1O [12a] | 9.8 | – | – | –
O=C(O)[C@H]1O[C@@H](OCCCn2cc(COc3cc(COCC(COCc4cc(OCc5cn(CCCO[C@@H]6O[C@H](C(=O)O)[C@@H](O)[C@H](O)[C@H]6O)nn5)cc(OCc5cn(CCCO[C@@H]6O[C@H](C(=O)O)[C@@H](O)[C@H](O)[C@H]6O)nn5)c4)(COCc4cc(OCc5cn(CCCO[C@@H]6O[C@H](C(=O)O)[C@@H](O)[C@H](O)[C@H]6O)nn5)cc(OCc5cn(CCCO[C@@H]6O[C@H](C(=O)O)[C@@H](O)[C@H](O)[C@H]6O)nn5)c4)COCc4cc(OCc5cn(CCCO[C@@H]6O[C@H](C(=O)O)[C@@H](O)[C@H](O)[C@H]6O)nn5)cc(OCc5cn(CCCO[C@@H]6O[C@H](C(=O)O)[C@@H](O)[C@H](O)[C@H]6O)nn5)c4)cc(OCc4cn(CCCO[C@@H]5O[C@H](C(=O)O)[C@@H](O)[C@H](O)[C@H]5O)nn4)c3)nn2)[C@H](O)[C@@H](O)[C@@H]1O [12c] | 153 | 6.20 | – | –
heparin [reference compound] | – | – | 7.25 | 8.6–11 fold
